Consider 18 molecules from ChEMBL document CHEMBL1142825, “Synthesis and antiviral activity against Coxsackie virus B3 of some novel benzimidazole derivatives” (Bioorg Med Chem Lett, 2005).

Assay [1] concerns Vero. Kind of assay: Selectivity index (TC50/IC50) against Coxsackie virus B3 in Vero cells. Type of assay: functional, Chlorocebus sabaeus.
The test system of assay [2] is Vero. Kind of assay: Cytotoxic concentration required to inhibit Vero cell growth by 50%. The class given is functional, Chlorocebus sabaeus. The following applies: for CC50: Chlorocebus sabaeus, Vero, read-out: TC50 (the source's name).
Assay [3] relates to Vero. Kind of assay: Antiviral activity against Coxsackie virus B3 growth by 50% in Vero cells. The class given is functional, cell-based, Chlorocebus sabaeus.
The test system of assay [4] is Vero. The assay can be described thus: Antiviral activity against Coxsackie virus B3 growth by 50% in Vero cells:not active. The class given is functional, cell-based, Chlorocebus sabaeus.
Where [5] appears, read: Chlorocebus sabaeus, Vero, read-out: IC50.

Values after ≈ are worked out from the molar mass of the structure shown. Values joined by “and” are separate entries in the source; they are usually repeats but may differ in a detail not shown here. Identical values can stand only once.

Usually IC50 stands for the concentration at which inhibition is half-maximal. For the molecule `O=C(Nc1cccc(Br)c1)c1cccc2[nH]c(-c3ccncc3)nc12`, the SI in the assay with Vero [1] is 2. Besides, the CC50 with Vero [2] was less than 8.24 µg/mL. Further, the IC50 in the assay on Vero [3] (setting [5]) worked out at 4.12 µg/mL (≈ 10.5 µM).

For `O=C(Nc1ccccc1F)c1cccc2[nH]c(-c3ccncc3)nc12`, the IC50 entry in the assay on Vero [4] is reported as “Not Active”. Moreover, the CC50 in the assay with Vero [2] amounted to 12.3 µg/mL (≈ 37 µM).

`O=C(Nc1ccccc1)c1cccc2[nH]c(-c3cccnc3)nc12`: the SI in the assay on Vero [1] is recorded as 9.17. For the same molecule, the CC50 in the assay on Vero [2] stood at 10.7 µg/mL (≈ 34.2 µM). Further, the half-maximal inhibitory concentration (IC50) in the assay with Vero [3] (setting [5]) stood at 1.17 µg/mL (≈ 3.72 µM).

In turn, `O=C(Nc1ccccc1O)c1cccc2[nH]c(-c3ccncc3)nc12` returned an SI in the assay with Vero [1] of 4.56. Moreover, in the assay on Vero [2], the CC50 was less than 18.5 µg/mL. The IC50 in the assay on Vero [3] (setting [5]) turned out to be 4.05 µg/mL (≈ 12.3 µM).

As for `Cc1ccccc1NC(=O)c1cccc2[nH]c(-c3ccncc3)nc12`, the SI in the assay with Vero [1] is 11.48 and 4.81. Also, in the assay on Vero [2], the TC50 is <27.8 µg/mL and <10.74 µg/mL. Moreover, the values for the IC50 with Vero [3] (setting [5]) and with Vero [3] (vero) were 2.42 µg/mL (≈ 7.37 µM) and 2.23 µg/mL (≈ 6.79 µM), respectively.

Regarding `O=C(Nc1cccc(O)c1)c1cccc2[nH]c(-c3ccncc3)nc12`, the IC50 result in the assay with Vero [4] is recorded as “Not Active”. The CC50 in the assay on Vero [2] was less than 5.9 µg/mL.

For `NC(=O)c1cccc2[nH]c(-c3cccnc3)nc12`, in the assay with Vero [1], the SI came out at 2.98. The CC50 in the assay on Vero [2] was found to be 18.5 µg/mL (≈ 77.6 µM). In addition, in the assay on Vero [3] (setting [5]), the IC50 amounted to 6.2 µg/mL (≈ 26 µM).

The molecule `O=C(Nc1ccc([N+](=O)[O-])cc1)c1cccc2[nH]c(-c3ccncc3)nc12` had an SI with Vero [1] of 2.99. In addition, in the assay with Vero [2], the CC50 is less than 55.5 µg/mL. Besides, in the assay with Vero [3] (setting [5]), the IC50 was found to be 18.5 µg/mL (≈ 51.5 µM).

For the molecule `O=C(Nc1ccccc1)c1cccc2[nH]c(-c3ccccn3)nc12`, in the assay with Vero [1], the SI came out at 38.8. For the same molecule, the CC50 in the assay with Vero [2] is 55.6 µg/mL (≈ 177 µM). For the same molecule, the IC50 with Vero [3] (setting [5]) was found to be 1.43 µg/mL (≈ 4.55 µM).

Regarding `O=C(NCCO)c1cccc2[nH]c(-c3ccncc3)nc12`, the IC50 result with Vero [4] is recorded as “Not Active”. In the assay on Vero [2], the CC50 is 141 µg/mL (≈ 498 µM).

For `O=C(Nc1ccccc1F)c1cccc2[nH]c(-c3cccnc3)nc12`, the SI in the assay with Vero [1] came out at 11.4. In the assay on Vero [2], the CC50 is 37 µg/mL (≈ 111 µM). The IC50 in the assay on Vero [3] (setting [5]) is 3.23 µg/mL (≈ 9.72 µM).

`O=C(NCCO)c1cccc2[nH]c(-c3cccnc3)nc12` yielded an SI in the assay with Vero [1] of 7.51. Also, the CC50 with Vero [2] amounted to 192 µg/mL (≈ 682 µM). Besides, the IC50 with Vero [3] (setting [5]) is 25.6 µg/mL (≈ 90.6 µM).

With `NC(=O)c1cccc2[nH]c(-c3ccccn3)nc12`, the SI in the assay with Vero [1] turned out to be 7.32. Also, the CC50 with Vero [2] came to 53.4 µg/mL (≈ 224 µM). For the same molecule, the IC50 with Vero [3] (setting [5]) turned out to be 7.29 µg/mL (≈ 30.6 µM).

Molecule `O=C(Nc1ccc(Cl)cc1)c1cccc2[nH]c(-c3ccncc3)nc12` showed an SI with Vero [1] of 2.35. Also, the CC50 with Vero [2] is less than 20.9 µg/mL. Moreover, the IC50 in the assay on Vero [3] (setting [5]) stood at 8.72 µg/mL (≈ 25 µM).

Molecule `O=C(Nc1ccccc1)c1cccc2[nH]c(-c3ccncc3)nc12` returned an SI in the assay on Vero [1] of 4.06. The CC50 with Vero [2] was determined as 15.6 µg/mL (≈ 49.8 µM). The IC50 in the assay on Vero [3] (setting [5]) stood at 3.85 µg/mL (≈ 12.2 µM).

In the assay on Vero [1], `O=C(NCCO)c1cccc2[nH]c(-c3ccccn3)nc12` had an SI of 4.32. Moreover, the CC50 with Vero [2] turned out to be 160 µg/mL (≈ 567 µM). Moreover, the IC50 in the assay with Vero [3] (setting [5]) amounted to 37 µg/mL (≈ 131 µM).

For the molecule `O=C(Nc1ccccc1F)c1cccc2[nH]c(-c3ccccn3)nc12`, in the assay on Vero [1], the SI came out at 28.3. Also, the CC50 in the assay with Vero [2] was 15.3 µg/mL (≈ 46.1 µM). Also, in the assay with Vero [3] (setting [5]), the IC50 was 0.54 µg/mL (≈ 1.62 µM).

`NC(=O)c1ncn([C@@H]2O[C@H](CO)[C@@H](O)[C@H]2O)n1` [RIBAVIRIN]: in the assay on Vero [1], the SI is on record as greater than 2.23. Moreover, in the assay on Vero [2], the CC50 was greater than 1000 µg/mL. The IC50 in the assay with Vero [3] (setting [5]) is 448 µg/mL (≈ 1830 µM).
